How the values were obtained:
[1] = system: FaDu cells; assay: comet assay for DNA damage in FaDu cells; assay type: cell-based, human; settings: 1 μM BrdU with 1 Gy of 14 keV NR, versus BrdU-RS2000 or RS2000
Experimental: Referring to FIGS. 22A and 22B, comet assays for evaluating DNA damages induced by BrdU, RS2000, BrdU with RS2000, NR, and NR with BrdU are provided in accordance with an exemplary embodiment of the present disclosure. Comet assays are commonly used to measure DNA single-strand breaks […] and double-strand breaks (DSBs). FaDu cells (10^4 cells/10 μl of PBS) are mixed with 75 μl of 0.75% low-melting agarose. The mixture is then immediately embedded onto a glass slide pre-coated with 2 layers of 1% agarose, and spread evenly with a coverslip. The mixture on the glass slide is solidified on ice for 5 minutes. 2 additional layers of 1% agarose are then coated on the cell layer. The cell is then soaked with cell lysis buffer (10 mM Tris, 2.5 M NaCl, 100 mM Na2-EDTA, and 1% Triton X-100, pH 10.0) at 4° C. for 1 hour. The slide is then placed horizontally in an electrophoretic apparatus with alkaline electrophoretic buffer ([…] and 1 mM Na2-EDTA, pH >12.0) for 60 minutes, and then electrophoresis is conducted in the apparatus for 30 minutes at 25 V and 300 mA. After the electrophoresis has ended, the slide is soaked with neutralization buffer (0.4 M Tris, pH 7.4) for 10 minutes. The cells on the slide are stained with propidium iodide (PI) of 20 μg/ml and subjected to microscopic examination. […] FIG. 22B is a quantified result of FIG. 22A. […]

[2] = system: γH2AX; assay: Western blotting for pATM, γH2AX and c-CASP3 in FaDu cells; assay type: cell-based, human; settings: 10 μM IdU and 2 Gy of NR, 30 minutes after irradiation, among all treatments
Experimental: To investigate the mechanism associated with the combination of IdU and NR in the Auger molecular therapy, molecular markers involving DNA damage and apoptosis are analyzed. In vitro FaDu cells are treated with 10 μM of IdU, and irradiated by 2Gy of NR or RS2000. 30 minutes after above treatments, FaDu cells are subjected to Western blot to determine the expression of several proteins relevant to DNA damage and apoptosis: phosphor-ATM (pATM) is a protein kinase activated by DNA double-strand-breaks (DSBs), and it phosphorylates several key factors to initiate DNA damage checkpoint and repair; γH2AX is one of the targets of pATM, and it forms the foundation of chromatin-based signaling cascades at DSBs sites, and it is widely considered as a highly specific and sensitive marker for quantitative evaluation of DSB; and CASP3 is a marker for increased apoptosis, wherein c-CASP3 is a cleaved CASP3 formed when apoptotic signals are present in the cell. The subcutaneous tumor also subjected to Western blot 3 days after the above treatments.
FIGS. 17A and 17B are results of Western blotting for protein expression levels of pATM, γH2AX, and c-CASP3, in accordance with exemplary embodiments of the present disclosure. FIG. 17A is the result at 30 minutes after irradiation, and FIG. 17B is the result at 3 days after irradiation, wherein β-ACTIN are served as an internal control in both figures. […]

[3] = system: subcutaneous malignant solid tumor comprised of FaDu cells; assay: in vivo tumor growth of subcutaneous FaDu solid tumor on tumorigenic mice; settings: for tumor growth inhibition rate: end of the in vivo test; for relative proliferation rate of solid tumor: repeated after 7 days
Experimental: FIG. 12 is a schematic diagram of an in vivo animal experiment, in accordance with an exemplary embodiment of the present disclosure. A subcutaneous malignant solid tumor comprised of FaDu cells (tumor size is about 200 mm^3) on the tumorigenic mice is injected with 0.5 μg/μl of IdU. 4 hours after the injection, the solid tumor is then irradiated by 4 Gy 33 keV NR. The IdU-NR treatment are repeated on the same tumor after 7 days. Other groups of mouse are only injected with 50 μg of IdU or only irradiated with 4 Gy 33 keV NR, and the IdU injection or the NR irradiation is repeated on the same tumor after 7 days. The control group is the mice without NR, IdU, or IdU-NR treatment.
The subcutaneous malignant solid tumor comprised of FaDu cells on the tumorigenic mice is treated with IdU, NR, or IdU and NR, following the same experiment procedure as depicted in FIG. 12. The relative proliferation rates of the solid tumors are calculated by measuring the size of the solid tumor on Days 3, 7, 10, 14, 17, 21, 24, and 28, respectively. […] The solid tumor of IdU-NR group has the lowest relative proliferation rate among other groups, and the relative proliferation rate of IdU-NR group is even lower than 100% (p<0.05), this indicates the tumor size is smaller after the IdU and NR treatment.
To further investigate a therapeutically effective dosage for the combination of IdU and NR, another series of in vivo experiments are conducted, see FIGS. 15A-15F. The experiment procedure is the same with the procedure described in FIG. 12. FIG. 15A and FIG. 15B show cells irradiated with 2.25 Gy NR and 2.25 Gy RS2000, FIG. 15C and FIG. 15D show cells irradiated with 4.5 Gy NR and 4.5 Gy RS2000, and FIG. 15E and FIG. 15F show cells irradiated with 9 Gy NR and 9 Gy RS2000, in accordance with exemplary embodiments of the present disclosure. Control groups in FIGS. 15A-15F are FaDu cells isolated from the subcutaneous solid tumor of the tumorigenic mouse without treatment of IdU or any radiation. The tumor growth index in FIGS. 15A-15F are calculated based on tumor volumes: for each of the tumorigenic mouse, the tumor volume on Day 0 is set as 100%, and relative volume percentages in the following days relative to Day 0 are presented as the tumor growth index (%).

SMILES	relative DNA tail movement (comet assay) [1]	γH2AX expression (Western blot) [2]	tumor growth inhibition rate ([3]; IdU 50 μg and 4.5 Gy NR) [%]	tumor growth inhibition rate ([3]; IdU 50 μg and 9 Gy NR) [%]	tumor growth versus RS2000 only ([3]; IdU 50 μg and RS2000 (2.25, 4.5, 9 Gy))	relative proliferation rate of solid tumor ([3]; IdU-NR group, 0.5 μg/μl IdU plus 4 Gy 33 keV NR, p<0.05)	relative proliferation rate of solid tumor ([3]; IdU-only group, 50 μg of IdU, to Day 28)	tumor growth (tumor growth index) ([3]; treated only with IdU, 50 μg)
O=c1[nH]c(=O)n([C@H]2C[C@H](O)[C@@H](CO)O2)cc1Br [BrdU, bromodeoxyuridine]	largest relative DNA tail movements	–	–	–	–	–	–	–
O=c1[nH]c(=O)n([C@H]2C[C@H](O)[C@@H](CO)O2)cc1I [IdU, iododeoxyuridine]	–	most γH2AX expression	68	83	does not significantly inhibit the tumor growth	lower than 100%	lower relative proliferation rate than the control group	not inhibited

From US20210401867A1, “PHOTOSENSITIZERS AND METHOD OF TREATING CANCER USING THE SAME” (Cheng-Wen Wu, priority 2018, published 2021)
